From PubChem BioAssay (NCI) come the findings set out here.

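How tested: cells in 96-well plates exposed to compound for 48 hours at five concentrations. Here, GI50 denotes the concentration required for 50% inhibition of growth. TGI is the concentration that stops growth completely.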

Some test systems named below: OVCAR-8 ovarian; A498 renal; UACC-62 melanoma; U251 CNS; A549 NSCLC; HL-60(TB) leukemia; EKVX NSCLC; NCI-H23 lung.
What all share (assay): inhibition of tumour cell growth, NCI panel, 48 h

Regarding `Cc1cc(C)nc(NS(=O)(=O)c2ccc(Nc3c4ccccc4nc4c(C(=O)Nc5ccc(S(=O)(=O)N=C(N)N)cc5)ccc(Cl)c34)cc2)n1`, the TGI was 33.4 µM in the experiment on OVCAR-8 ovarian; above 100 µM in the experiment on A498 renal; 36.9 µM in the experiment with UACC-62 melanoma; 34.6 µM in the experiment on U251 CNS; above 100 µM with A549 NSCLC; 54 µM in the experiment on HL-60(TB) leukemia. Further, the TGI in the experiment on EKVX NSCLC is above 100 µM; in the experiment with NCI-H23 lung, 43.7 µM.
Regarding `O=C(O)CSc1n[nH]c(-c2ccc(O)cc2)n1`, the TGI in the experiment with OVCAR-8 ovarian, in the experiment on A498 renal, in the experiment with UACC-62 melanoma, with U251 CNS, with A549 NSCLC and in the experiment on HL-60(TB) leukemia was above 100 µM in each case. The TGI with EKVX NSCLC and in the experiment with NCI-H23 lung was above 100 µM each time.
As to `CC1OC(OCC2OC(Oc3c(-c4ccc(O)cc4)oc4cc(O)cc(O)c4c3=O)C(OC3OCC(O)(CO)C3O)C(O)C2O)C(O)C(O)C1O` (configuration not stated), the TGI in the experiment with OVCAR-8 ovarian is above 100 µM; in the experiment with A498 renal, above 100 µM; with UACC-62 melanoma, above 100 µM; with U251 CNS it was above 100 µM; with A549 NSCLC, above 100 µM; in the experiment on HL-60(TB) leukemia, 38.7 µM. Also, the TGI in the experiment on EKVX NSCLC and in the experiment with NCI-H23 lung was above 100 µM each time.
In the case of `Cc1cnc2c(C)ccc([N+](=O)[O-])c2c1NCCCN(C)C`, the TGI with OVCAR-8 ovarian, in the experiment with U251 CNS, in the experiment on A549 NSCLC, in the experiment on HL-60(TB) leukemia, with EKVX NSCLC and in the experiment with NCI-H23 lung was above 100 µM throughout.
In the case of `CC[C@H](C)N(CCN)C(=O)c1cc2ccccc2c(-c2ccccc2Cl)n1`, the TGI is 27.6 µM in the experiment on OVCAR-8 ovarian; 17.4 µM in the experiment with A498 renal; 29.5 µM in the experiment with UACC-62 melanoma; 24.4 µM in the experiment on U251 CNS; above 100 µM in the experiment with A549 NSCLC; 23.1 µM with HL-60(TB) leukemia. Also, the TGI in the experiment with EKVX NSCLC came to 25.4 µM; in the experiment with NCI-H23 lung, 28.6 µM.
In the case of `O=C1C(=O)N(C(=O)c2ccc(Cl)c(Cl)c2)c2ccccc21`, the TGI in the experiment on OVCAR-8 ovarian, with UACC-62 melanoma, in the experiment with U251 CNS, in the experiment on A549 NSCLC, with HL-60(TB) leukemia and in the experiment with EKVX NSCLC was above 100 µM each time. In addition, the TGI in the experiment with NCI-H23 lung is above 100 µM.
Regarding `O=C(O)c1c(-c2cccc3ccccc23)sc(-c2cccc3ccccc23)c1C(=O)O`, the TGI with OVCAR-8 ovarian, with UACC-62 melanoma, with U251 CNS, in the experiment with A549 NSCLC, in the experiment with HL-60(TB) leukemia and with EKVX NSCLC was above 100 µM in each case. The compound further came in with a TGI in the experiment on NCI-H23 lung above 100 µM.
As for `O=C(c1ccccc1)C(c1ccccc1)C1(O)C(=O)Nc2c(Cl)cc(Cl)cc21` (configuration not stated), the TGI stood at 32.9 µM in the experiment on OVCAR-8 ovarian; 96.6 µM with U251 CNS; 41.8 µM in the experiment on A549 NSCLC; 39.5 µM in the experiment with HL-60(TB) leukemia; 27.8 µM in the experiment on EKVX NSCLC; 35.5 µM in the experiment with NCI-H23 lung.
As for `CCOC(=O)C(=O)Nc1nc2c(s1)C(=O)c1ccccc1C2=O`, the TGI with OVCAR-8 ovarian came to 47.5 µM; in the experiment on A498 renal, 33.2 µM; in the experiment with UACC-62 melanoma it was 34.4 µM; in the experiment with U251 CNS it was 31 µM; in the experiment on A549 NSCLC it was 34.4 µM; with EKVX NSCLC it was 29.6 µM. Besides, the TGI in the experiment with NCI-H23 lung stood at 27.6 µM.
Regarding `CNC(P(=O)([O-])[O-])P(=O)([O-])[O-].N.N.[Pt+2]`, the GI50 in the experiment with OVCAR-8 ovarian, in the experiment with UACC-62 melanoma, with U251 CNS, in the experiment on A549 NSCLC, in the experiment with EKVX NSCLC and in the experiment on NCI-H23 lung was above 100 µM in each case. Also, the TGI in the experiment on OVCAR-8 ovarian, with UACC-62 melanoma, with U251 CNS, with A549 NSCLC, with EKVX NSCLC and in the experiment with NCI-H23 lung was above 100 µM each time.
With `Cc1ccc(OCC(=O)N2N=C(c3ccccc3)CC2(O)c2ccccc2)cc1` (configuration not stated), the TGI in the experiment on OVCAR-8 ovarian was above 100 µM; in the experiment with UACC-62 melanoma it was above 100 µM; in the experiment on U251 CNS, 34.1 µM; with A549 NSCLC, 82.8 µM; in the experiment on HL-60(TB) leukemia it was above 100 µM; in the experiment with NCI-H23 lung, above 100 µM.
As to `COc1cc(CCc2ccc(OCCN(C)C)cc2)cc(OC)c1OC`, the TGI in the experiment with OVCAR-8 ovarian, in the experiment on A498 renal, in the experiment with UACC-62 melanoma, with U251 CNS, in the experiment with A549 NSCLC and in the experiment with HL-60(TB) leukemia was above 100 µM each time. The TGI in the experiment on EKVX NSCLC was above 100 µM.
Consider `Nc1ccn(CCOC(=O)c2ccccc2)c(=O)n1`, for which the TGI in the experiment on OVCAR-8 ovarian, in the experiment with A498 renal, in the experiment on UACC-62 melanoma, in the experiment on U251 CNS, with A549 NSCLC and with HL-60(TB) leukemia was above 100 µM throughout. The TGI with EKVX NSCLC was above 100 µM.
